The source made the active and inactive calls. The calls are words filed in the database; no cut-off is given here.
How the values were obtained:
786-0 [1] = assay: Cytotoxicity against human 786-0 cells assessed as growth inhibition at 10 uM after 24 hrs by SRB assay; format: functional
Ovis aries = organism: Ovis aries; assay: Inhibition of sheep tubulin polymerization at 100 uM by fluorescence assay
RXF 393 [2] = assay: Cytotoxicity against human RXF393 cells assessed as growth inhibition at 10 uM after 24 hrs by SRB assay; format: functional
OVCAR-4 = assay: Cytotoxicity against human OVCAR4 cells assessed as growth inhibition at 10 uM after 24 hrs by SRB assay; format: functional
CCRF-CEM = assay: Cytotoxicity against human CCRF-CEM cells assessed as growth inhibition at 10 uM after 24 hrs by SRB assay; format: functional
HL-60(TB) = assay: Cytotoxicity against human HL-60(TB) cells assessed as growth inhibition at 10 uM after 24 hrs by SRB assay; format: functional
T47D = assay: Cytotoxicity against human T47D cells assessed as growth inhibition at 10 uM after 24 hrs by SRB assay; format: functional; conditions: for inhibition of growth at 10 µM: read-out: GI
PC-3 = assay: Cytotoxicity against human PC3 cells assessed as growth inhibition at 10 uM after 24 hrs by SRB assay; format: functional; conditions: for inhibition of growth at 10 µM: PC-3, 24 h, read-out: GI
SR = assay: Cytotoxicity against human SR cells assessed as growth inhibition at 10 uM after 24 hrs by SRB assay; format: functional; conditions: for inhibition of growth at 10 µM: read-out: GI
Hs-578T = assay: (§1) Cytotoxicity against human Hs578T cells assessed as growth inhibition at 10 uM after 24 hrs by SRB assay; format: functional
U-251 = assay: Cytotoxicity against human U251 cells assessed as growth inhibition at 10 uM after 24 hrs by SRB assay; format: functional
UACC-257 = assay: Cytotoxicity against human UACC257 cells assessed as growth inhibition at 10 uM after 24 hrs by SRB assay; format: functional
TK-10 = assay: Cytotoxicity against human TK10 cells assessed as growth inhibition at 10 uM after 24 hrs by SRB assay; format: functional
A549 = assay: Cytotoxicity against human A549 cells assessed as growth inhibition at 10 uM after 24 hrs by SRB assay; format: functional
SF-539 = assay: Cytotoxicity against human SF539 cells assessed as growth inhibition at 10 uM after 24 hrs by SRB assay; format: functional
NCI-H460 = assay: Cytotoxicity against human NCI-H460 cells assessed as growth inhibition at 10 uM after 24 hrs by SRB assay; format: functional
HOP-92 [3] = assay: Cytotoxicity against human HOP92 cells assessed as growth inhibition at 10 uM after 24 hrs by SRB assay; format: functional
MDA-MB-231 = assay: Cytotoxicity against human MDA-MB-231 cells assessed as growth inhibition at 10 uM after 24 hrs by SRB assay; format: functional; conditions: for inhibition of growth at 10 µM: MDA-MB-231, 24 h, read-out: GI
Malme-3M = assay: Cytotoxicity against human MALME-3M cells assessed as growth inhibition at 10 uM after 24 hrs by SRB assay; format: functional; conditions: for inhibition of growth at 10 µM: read-out: GI
SNB-75 [4] = assay: Cytotoxicity against human SNB75 cells assessed as growth inhibition at 10 uM after 24 hrs by SRB assay; format: functional; conditions: for inhibition of growth at 10 µM: SNB-75, 24 h, read-out: GI
NCI-H522 = assay: Cytotoxicity against human NCI-H522 cells assessed as growth inhibition at 10 uM after 24 hrs by SRB assay; format: functional
OVCAR-3 = assay: Cytotoxicity against human OVCAR3 cells assessed as growth inhibition at 10 uM after 24 hrs by SRB assay; format: functional
HCT-116 = assay: Cytotoxicity against human HCT116 cells assessed as growth inhibition at 10 uM after 24 hrs by SRB assay; format: functional
HOP-62 [5] = assay: Cytotoxicity against human HOP62 cells assessed as growth inhibition at 10 uM after 24 hrs by SRB assay; format: functional
SK-MEL-28 = assay: Cytotoxicity against human SK-MEL-28 cells assessed as growth inhibition at 10 uM after 24 hrs by SRB assay; format: functional
K562 = assay: Cytotoxicity against human K562 cells assessed as growth inhibition at 10 uM after 24 hrs by SRB assay; format: functional
NCI-H226 = assay: Cytotoxicity against human NCI-H226 cells assessed as growth inhibition at 10 uM after 24 hrs by SRB assay; format: functional
RPMI-8226 = assay: Cytotoxicity against human RPMI8226 cells assessed as growth inhibition at 10 uM after 24 hrs by SRB assay; format: functional
SK-MEL-5 = assay: Cytotoxicity against human SK-MEL-5 cells assessed as growth inhibition at 10 uM after 24 hrs by SRB assay; format: functional
CAKI-1 = assay: Cytotoxicity against human CAKI-1 cells assessed as growth inhibition at 10 uM after 24 hrs by SRB assay; format: functional; conditions: for inhibition of growth at 10 µM: CAKI-1, 24 h, read-out: GI
SF-295 = assay: Cytotoxicity against human SF295 cells assessed as growth inhibition at 10 uM after 24 hrs by SRB assay; format: functional
ACHN = assay: Cytotoxicity against human ACHN cells assessed as growth inhibition at 10 uM after 24 hrs by SRB assay; format: functional
SK-OV-3 = assay: Cytotoxicity against human SKOV3 cells assessed as growth inhibition at 10 uM after 24 hrs by SRB assay; format: functional
MCF7 = assay: Cytotoxicity against human MCF7 cells assessed as growth inhibition at 10 uM after 24 hrs by SRB assay; format: functional; conditions: for inhibition of growth at 10 µM: MCF7, 24 h, read-out: GI
OVCAR-8 = assay: Cytotoxicity against human OVCAR8 cells assessed as growth inhibition at 10 uM after 24 hrs by SRB assay; format: functional
NCI/ADR-RES = assay: Cytotoxicity against human NCI/ADR-RES cells assessed as growth inhibition at 10 uM after 24 hrs by SRB assay; format: functional
MDA-MB-435 = assay: Cytotoxicity against human MDA-MB-435 cells assessed as growth inhibition at 10 uM after 24 hrs by SRB assay; format: functional
UACC-62 = assay: Cytotoxicity against human UACC62 cells assessed as growth inhibition at 10 uM after 24 hrs by SRB assay; format: functional
[6] = as §1; format: functional; conditions: Hs-578T, read-out: GI
SNB-75 [7] = assay: Cytotoxicity against human SNB75 cells after 48 hrs by SRB assay; format: functional; conditions: SNB-75, 48 h
HOP-92 [8] = assay: Cytotoxicity against human HOP92 cells after 48 hrs by SRB assay; format: functional; conditions: HOP-92, 48 h
786-0 [9] = assay: Cytotoxicity against human 786-0 cells after 48 hrs by SRB assay; format: functional; conditions: 786-0, 48 h
RXF 393 [10] = assay: Cytotoxicity against human RXF393 cells after 48 hrs by SRB assay; format: functional; conditions: RXF 393, 48 h
HOP-62 [11] = assay: Cytotoxicity against human HOP62 cells after 48 hrs by SRB assay; format: functional; conditions: HOP-62, 48 h

SMILES: COc1nc(OC)nc(-c2cc(C(=O)c3cc(OC)c(OC)c(OC)c3)n3ccccc23)n1
- growth inhibition (GI) (786-0 [1]): inactive
- inhibition (Ovis aries): inactive
- growth inhibition (GI) (RXF 393 [2]): inactive
- growth inhibition (GI) (OVCAR-4): inactive
- growth inhibition (GI) (CCRF-CEM): inactive
- growth inhibition (GI) (HL-60(TB)): inactive
- growth inhibition (GI) (T47D): inactive
- growth inhibition (GI) (PC-3): inactive
- inhibition of growth at 10 µM (SR): 20%
- growth inhibition (GI) (Hs-578T): inactive
- growth inhibition (GI) (U-251): inactive
- growth inhibition (GI) (UACC-257): inactive
- growth inhibition (GI) (TK-10): inactive
- growth inhibition (GI) (A549): inactive
- growth inhibition (GI) (SF-539): inactive
- growth inhibition (GI) (NCI-H460): inactive
- growth inhibition (GI) (HOP-92 [3]): inactive
- growth inhibition (GI) (MDA-MB-231): inactive
- inhibition of growth at 10 µM (Malme-3M): 11%
- growth inhibition (GI) (SNB-75 [4]): inactive
- growth inhibition (GI) (NCI-H522): inactive
- growth inhibition (GI) (OVCAR-3): inactive
- growth inhibition (GI) (HCT-116): inactive
- growth inhibition (GI) (HOP-62 [5]): inactive
- growth inhibition (GI) (SK-MEL-28): inactive
- inhibition of growth at 10 µM (K562; K562, 24 h, read-out: GI): 10%
- growth inhibition (GI) (NCI-H226): inactive
- growth inhibition (GI) (RPMI-8226): inactive
- growth inhibition (GI) (SK-MEL-5): inactive
- growth inhibition (GI) (CAKI-1): inactive
- growth inhibition (GI) (SF-295): inactive
- growth inhibition (GI) (ACHN): inactive
- growth inhibition (GI) (SK-OV-3): inactive
- growth inhibition (GI) (MCF7): inactive
- growth inhibition (GI) (OVCAR-8): inactive
- growth inhibition (GI) (NCI/ADR-RES): inactive
- inhibition of growth at 10 µM (MDA-MB-435; MDA-MB-435, 24 h, read-out: GI): 35%
- growth inhibition (GI) (UACC-62): inactive

SMILES: COc1nc(OC)nc(-c2cc(C(=O)c3ccc(C)cc3)n3ccccc23)n1
- growth inhibition (GI) (786-0 [1]): inactive
- inhibition (Ovis aries): inactive
- growth inhibition (GI) (RXF 393 [2]): inactive
- growth inhibition (GI) (OVCAR-4): inactive
- inhibition of growth at 10 µM (CCRF-CEM; read-out: GI): 13%
- growth inhibition (GI) (HL-60(TB)): inactive
- inhibition of growth at 10 µM (T47D): 15%
- inhibition of growth at 10 µM (PC-3): 13%
- inhibition of growth at 10 µM (SR): 22%
- growth inhibition (GI) (Hs-578T): inactive
- growth inhibition (GI) (U-251): inactive
- growth inhibition (GI) (UACC-257): inactive
- growth inhibition (GI) (TK-10): inactive
- growth inhibition (GI) (A549): inactive
- growth inhibition (GI) (SF-539): inactive
- growth inhibition (GI) (NCI-H460): inactive
- growth inhibition (GI) (HOP-92 [3]): inactive
- inhibition of growth at 10 µM (MDA-MB-231): 35%
- growth inhibition (GI) (Malme-3M): inactive
- inhibition of growth at 10 µM (SNB-75 [4]): 18%
- growth inhibition (GI) (NCI-H522): inactive
- growth inhibition (GI) (OVCAR-3): inactive
- inhibition of growth at 10 µM (HCT-116; HCT-116, 24 h, read-out: GI): 12%
- growth inhibition (GI) (HOP-62 [5]): inactive
- growth inhibition (GI) (SK-MEL-28): inactive
- growth inhibition (GI) (K562): inactive
- growth inhibition (GI) (NCI-H226): inactive
- inhibition of growth at 10 µM (RPMI-8226; RPMI-8226, 24 h, read-out: GI): 26%
- inhibition of growth at 10 µM (SK-MEL-5; SK-MEL-5, 24 h, read-out: GI): 19%
- inhibition of growth at 10 µM (CAKI-1): 43%
- growth inhibition (GI) (SF-295): inactive
- growth inhibition (GI) (ACHN): inactive
- growth inhibition (GI) (SK-OV-3): inactive
- inhibition of growth at 10 µM (MCF7): 10%
- growth inhibition (GI) (OVCAR-8): inactive
- growth inhibition (GI) (NCI/ADR-RES): inactive
- growth inhibition (GI) (MDA-MB-435): inactive
- growth inhibition (GI) (UACC-62): inactive

SMILES: COc1nc(OC)nc(-c2cc(C(=O)c3ccc(Br)cc3)n3ccc4ccccc4c23)n1
- inhibition of growth at 10 µM (786-0 [1]; 786-0, 24 h, read-out: GI): 81%
- inhibition (Ovis aries): inactive
- inhibition of growth at 10 µM (RXF 393 [2]; RXF 393, 24 h, read-out: GI): 81%
- inhibition of growth at 10 µM (OVCAR-4; OVCAR-4, 24 h, read-out: GI): 33%
- growth inhibition (GI) (CCRF-CEM): inactive
- growth inhibition (GI) (HL-60(TB)): inactive
- inhibition of growth at 10 µM (T47D): 38%
- inhibition of growth at 10 µM (PC-3): 58%
- growth inhibition (GI) (SR): inactive
- inhibition of growth at 10 µM [6]: 65%
- growth inhibition (GI) (U-251): inactive
- inhibition of growth at 10 µM (UACC-257; UACC-257, 24 h, read-out: GI): 32%
- growth inhibition (GI) (TK-10): inactive
- GI50 (SNB-75 [7]): 2580 nM
- inhibition of growth at 10 µM (A549; A549, 24 h, read-out: GI): 55%
- GI50 (HOP-92 [8]): 13.2 µM
- growth inhibition (GI) (SF-539): inactive
- inhibition of growth at 10 µM (NCI-H460; NCI-H460, 24 h, read-out: GI): 71%
- growth inhibition (GI) (HOP-92 [3]): inactive
- inhibition of growth at 10 µM (MDA-MB-231): 96%
- inhibition of growth at 10 µM (Malme-3M): 67%
- inhibition of growth at 10 µM (SNB-75 [4]): 75%
- GI50 (786-0 [9]): 4.06 µM
- growth inhibition (GI) (NCI-H522): inactive
- inhibition of growth at 10 µM (OVCAR-3; OVCAR-3, 24 h, read-out: GI): 51%
- growth inhibition (GI) (HCT-116): inactive
- growth inhibition (GI) (HOP-62 [5]): inactive
- inhibition of growth at 10 µM (SK-MEL-28; SK-MEL-28, 24 h, read-out: GI): 52%
- growth inhibition (GI) (K562): inactive
- inhibition of growth at 10 µM (NCI-H226; NCI-H226, 24 h, read-out: GI): 28%
- growth inhibition (GI) (RPMI-8226): inactive
- growth inhibition (GI) (SK-MEL-5): inactive
- inhibition of growth at 10 µM (CAKI-1): 44%
- GI50 (RXF 393 [10]): 3.57 µM
- inhibition of growth at 10 µM (SF-295; SF-295, 24 h, read-out: GI): 76%
- GI50 (HOP-62 [11]): 22.8 µM
- inhibition of growth at 10 µM (ACHN; read-out: GI): 29%
- growth inhibition (GI) (SK-OV-3): inactive
- inhibition of growth at 10 µM (MCF7): 60%
- inhibition of growth at 10 µM (OVCAR-8; OVCAR-8, 24 h, read-out: GI): 50%
- inhibition of growth at 10 µM (NCI/ADR-RES; read-out: GI): 46%
- growth inhibition (GI) (MDA-MB-435): inactive
- growth inhibition (GI) (UACC-62): inactive
